Source: the supplement of paper PMC10307832

Experiments:
Experiment in all cases: relative viability (nuclei count vs DMSO), 5 days (fraction); higher = more cells survive
[1] = compound: OCc1c[nH]c2ccccc12 [Indole-3-carbinol] + CC(C)C[C@H](NC(=O)[C@H](Cc1ccccc1)NC(=O)c1cnccn1)B(O)O [Bortezomib] (partner 0.002 µM)
Summary of the method: (§1)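 After 5 days of treatment, lung cancer cells in 1536-well plates were fixed and stained in a single step (final 0.05% Triton X-100, 1% formaldehyde, 1 ug/ml Hoechst) and their nuclei counted on 4× images. Treatment had been applied by pin tool the day after seeding as one drug alone or as a fixed anchor-drug dose with five library-drug doses (not always all listed) in √10 steps. Relative viability is the nuclei count of treated wells divided by that of vehicle wells, and values are medians of duplicate plates.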

[2] = compound: OCc1c[nH]c2ccccc12 [Indole-3-carbinol] + CS(=O)(=O)N1CCN(Cc2cc3nc(-c4cccc5[nH]ncc45)nc(N4CCOCC4)c3s2)CC1 [Pictilisib] (partner 1 µM)
Summary of the method: as §1

[3] = compound: OCc1c[nH]c2ccccc12 [Indole-3-carbinol] + CC1(C)CCC(c2ccc(Cl)cc2)=C(CN2CCN(c3ccc(C(=O)NS(=O)(=O)c4ccc(N[C@H](CCN5CCOCC5)CSc5ccccc5)c(S(=O)(=O)C(F)(F)F)c4)cc3)CC2)C1 [Navitoclax] (partner 0.5 µM)
Summary of the method: as §1

[4] = compound: OCc1c[nH]c2ccccc12 [Indole-3-carbinol] + COc1cccc2cc(-c3nc([C@H]4CC[C@H](C(=O)O)CC4)n4ncnc(N)c34)[nH]c12 [OSI-027] (partner 0.5 µM)
Summary of the method: as §1

[5] = compound: OCc1c[nH]c2ccccc12 [Indole-3-carbinol] + CS(=O)(=O)CCNCc1ccc(-c2ccc3ncnc(Nc4ccc(OCc5cccc(F)c5)c(Cl)c4)c3c2)o1 [Lapatinib] (partner 2 µM)
Summary of the method: as §1

## NCI-H2087
[1]; first compound 0.253 µM
  relative viability: 0.815
[1]; first compound 0.8 µM
  relative viability: 0.967
[1]; first compound 2.53 µM
  relative viability: 0.963
[1]; first compound 8 µM
  relative viability: 0.678
[2]; first compound 0.253 µM
  relative viability: 0.726
[2]; first compound 0.8 µM
  relative viability: 1.07
[2]; first compound 2.53 µM
  relative viability: 0.91
[2]; first compound 8 µM
  relative viability: 0.833
[3]; first compound 0.253 µM
  relative viability: 1.04
[3]; first compound 0.8 µM
  relative viability: 1.22
[3]; first compound 2.53 µM
  relative viability: 1.02
[3]; first compound 8 µM
  relative viability: 0.967
[4]; first compound 0.253 µM
  relative viability: 0.435
[4]; first compound 0.8 µM
  relative viability: 0.644
[4]; first compound 2.53 µM
  relative viability: 0.571
[4]; first compound 8 µM
  relative viability: 0.513
[5]; first compound 0.253 µM
  relative viability: 1.32
[5]; first compound 0.8 µM
  relative viability: 0.952
[5]; first compound 2.53 µM
  relative viability: 1.12
[5]; first compound 8 µM
  relative viability: 0.814

## H3255
[1]; first compound 0.253 µM
  relative viability: 0.899
[1]; first compound 0.8 µM
  relative viability: 0.852
[1]; first compound 2.53 µM
  relative viability: 0.748
[1]; first compound 8 µM
  relative viability: 0.732
[2]; first compound 0.253 µM
  relative viability: 0.427
[2]; first compound 0.8 µM
  relative viability: 0.483
[2]; first compound 2.53 µM
  relative viability: 0.467
[2]; first compound 8 µM
  relative viability: 0.48
[3]; first compound 0.253 µM
  relative viability: 0.643
[3]; first compound 0.8 µM
  relative viability: 0.523
[3]; first compound 2.53 µM
  relative viability: 0.54
[3]; first compound 8 µM
  relative viability: 0.467
[4]; first compound 0.253 µM
  relative viability: 0.518
[4]; first compound 0.8 µM
  relative viability: 0.625
[4]; first compound 2.53 µM
  relative viability: 0.543
[4]; first compound 8 µM
  relative viability: 0.545
[5]; first compound 0.253 µM
  relative viability: 0.245
[5]; first compound 0.8 µM
  relative viability: 0.235
[5]; first compound 2.53 µM
  relative viability: 0.227
[5]; first compound 8 µM
  relative viability: 0.255

## NCI-H23
[1]; first compound 0.253 µM
  relative viability: 0.898
[1]; first compound 0.8 µM
  relative viability: 1.16
[1]; first compound 2.53 µM
  relative viability: 0.846
[1]; first compound 8 µM
  relative viability: 0.975
[2]; first compound 0.253 µM
  relative viability: 0.434
[2]; first compound 0.8 µM
  relative viability: 0.485
[2]; first compound 2.53 µM
  relative viability: 0.581
[2]; first compound 8 µM
  relative viability: 0.451
[3]; first compound 0.253 µM
  relative viability: 0.853
[3]; first compound 0.8 µM
  relative viability: 0.843
[3]; first compound 2.53 µM
  relative viability: 0.856
[3]; first compound 8 µM
  relative viability: 0.762
[4]; first compound 0.253 µM
  relative viability: 0.589
[4]; first compound 0.8 µM
  relative viability: 0.732
[4]; first compound 2.53 µM
  relative viability: 0.566
[4]; first compound 8 µM
  relative viability: 0.55
[5]; first compound 0.253 µM
  relative viability: 1.09
[5]; first compound 0.8 µM
  relative viability: 1.1
[5]; first compound 2.53 µM
  relative viability: 1.06
[5]; first compound 8 µM
  relative viability: 0.9

## HCC-827
[1]; first compound 0.253 µM
  relative viability: 0.873
[1]; first compound 0.8 µM
  relative viability: 0.986
[1]; first compound 2.53 µM
  relative viability: 1.03
[1]; first compound 8 µM
  relative viability: 0.986
[2]; first compound 0.253 µM
  relative viability: 0.926
[2]; first compound 0.8 µM
  relative viability: 1.04
[2]; first compound 2.53 µM
  relative viability: 0.841
[2]; first compound 8 µM
  relative viability: 1.07
[3]; first compound 0.253 µM
  relative viability: 1.04
[3]; first compound 0.8 µM
  relative viability: 1.09
[3]; first compound 2.53 µM
  relative viability: 1.05
[3]; first compound 8 µM
  relative viability: 0.947
[4]; first compound 0.253 µM
  relative viability: 0.751
[4]; first compound 0.8 µM
  relative viability: 0.659
[4]; first compound 2.53 µM
  relative viability: 0.723
[4]; first compound 8 µM
  relative viability: 0.808
[5]; first compound 0.253 µM
  relative viability: 0.202
[5]; first compound 0.8 µM
  relative viability: 0.18
[5]; first compound 2.53 µM
  relative viability: 0.227
[5]; first compound 8 µM
  relative viability: 0.191

## HCC-78
[1]; first compound 0.253 µM
  relative viability: 0.416
[1]; first compound 0.8 µM
  relative viability: 0.51
[1]; first compound 2.53 µM
  relative viability: 0.403
[1]; first compound 8 µM
  relative viability: 0.554
[2]; first compound 0.253 µM
  relative viability: 0.202
[2]; first compound 0.8 µM
  relative viability: 0.205
[2]; first compound 2.53 µM
  relative viability: 0.192
[2]; first compound 8 µM
  relative viability: 0.196
[3]; first compound 0.253 µM
  relative viability: 0.925
[3]; first compound 0.8 µM
  relative viability: 0.553
[3]; first compound 2.53 µM
  relative viability: 0.776
[3]; first compound 8 µM
  relative viability: 0.719
[4]; first compound 0.253 µM
  relative viability: 0.363
[4]; first compound 0.8 µM
  relative viability: 0.359
[4]; first compound 2.53 µM
  relative viability: 0.39
[4]; first compound 8 µM
  relative viability: 0.346
[5]; first compound 0.253 µM
  relative viability: 0.97
[5]; first compound 0.8 µM
  relative viability: 0.645
[5]; first compound 2.53 µM
  relative viability: 0.768
[5]; first compound 8 µM
  relative viability: 0.664
